Measurements from ChEMBL document CHEMBL5352492, “Application of deep generative model for design of Pyrrolo[2,3-d] pyrimidine derivatives as new selective TANK binding kinase 1 (TBK1) inhibitors” (Eur J Med Chem, 2023).

Key:
RAW264.7 [1] = assay: Inhibition of LPS-induced cxcl10 in mouse RAW264.7 cells treated for 2 hrs RTq-PCR analysis; type: functional, cell-based; settings: dose 0.1-1 µM
[2] = target: Macrophage colony-stimulating factor 1 receptor (Homo sapiens) (UniProt P07333); assay: Inhibition of CSF1R (unknown origin) at 100 to 1000 nM relative to control; settings: dose 100-1000 nM
[3] = target: Macrophage-stimulating protein receptor (Homo sapiens) (UniProt Q04912); assay: Inhibition of RON (unknown origin) at 100 to 1000 nM relative to control; settings: dose 100-1000 nM
[4] = target: T1, Serine/threonine-protein kinase TBK1 (Homo sapiens) (UniProt Q9UHD2); assay: Inhibition of TBK1 phosphorylation (unknown origin) of downstream signalling effector protein S6K at 1 to 20 uM after 24 hrs by Western blotting analysis; settings: dose 1-20 µM
T1 sequence (whole entry): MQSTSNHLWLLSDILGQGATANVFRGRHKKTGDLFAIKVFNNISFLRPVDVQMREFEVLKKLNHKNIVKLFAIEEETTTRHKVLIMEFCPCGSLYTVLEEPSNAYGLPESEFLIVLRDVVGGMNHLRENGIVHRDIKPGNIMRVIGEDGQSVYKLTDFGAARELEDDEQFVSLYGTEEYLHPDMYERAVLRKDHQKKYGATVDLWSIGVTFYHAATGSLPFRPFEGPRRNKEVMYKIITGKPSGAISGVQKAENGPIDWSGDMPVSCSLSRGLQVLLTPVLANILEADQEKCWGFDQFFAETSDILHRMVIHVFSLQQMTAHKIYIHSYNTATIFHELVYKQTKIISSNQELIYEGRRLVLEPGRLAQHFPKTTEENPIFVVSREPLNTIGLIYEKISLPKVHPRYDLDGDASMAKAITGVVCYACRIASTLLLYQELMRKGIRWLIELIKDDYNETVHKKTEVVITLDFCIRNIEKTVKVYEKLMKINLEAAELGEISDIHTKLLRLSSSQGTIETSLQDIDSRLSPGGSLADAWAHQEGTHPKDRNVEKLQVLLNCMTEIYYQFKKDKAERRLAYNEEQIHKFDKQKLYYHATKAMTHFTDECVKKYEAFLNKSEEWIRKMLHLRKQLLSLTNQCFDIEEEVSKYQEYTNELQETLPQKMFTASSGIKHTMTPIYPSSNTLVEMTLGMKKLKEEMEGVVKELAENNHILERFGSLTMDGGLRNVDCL

[5] = target: Receptor-type tyrosine-protein kinase FLT3 (Homo sapiens) (UniProt P36888); assay: Inhibition of Flt-3 (unknown origin) at 100 to 1000 nM relative to control; settings: dose 100-1000 nM
[6] = target: Platelet-derived growth factor receptor beta (Homo sapiens) (UniProt P09619); assay: Inhibition of PDGFR-beta (unknown origin) at 100 to 1000 nM relative to control; settings: dose 100-1000 nM
[7] = target: Insulin-like growth factor 1 receptor (Homo sapiens) (UniProt P08069); assay: Inhibition of IGF1R (unknown origin) at 100 to 1000 nM relative to control; settings: dose 100-1000 nM
THP1-Blue ISG [8] = assay: Inhibition of LPS-induced ifn-beta in human THP1-Blue ISG cells treated for 2 hrs RTq-PCR analysis; type: functional, cell-based; settings: dose 0.1-1 µM
[9] = target: T2, Serine/threonine-protein kinase TBK1 (Homo sapiens, UniProt Q9UHD2); assay: Inhibition of TBK1 in human THP1-Blue ISG cells by measuring SEAP gene expression incubated for 24 hrs by reporter gene assay; type: cell-based
T2 sequence (Q9UHD2 whole entry): T1 sequence (whole entry)

[10] = target: Fibroblast growth factor receptor 3 (Homo sapiens) (UniProt P22607); assay: Inhibition of FGFR3 (unknown origin) at 100 to 1000 nM relative to control; settings: dose 100-1000 nM
[11] = target: Mast/stem cell growth factor receptor Kit (Homo sapiens) (UniProt P10721); assay: Inhibition of KIT (unknown origin) at 100 to 1000 nM relative to control; settings: dose 100-1000 nM
[12] = target: Insulin receptor (Homo sapiens) (UniProt P06213); assay: Inhibition of IR (unknown origin) at 100 to 1000 nM relative to control; settings: dose 100-1000 nM
[13] = target: Focal adhesion kinase 1 (Homo sapiens) (UniProt Q05397); assay: Inhibition of FAK (unknown origin) at 100 to 1000 nM relative to control; settings: dose 100-1000 nM
[14] = target: Fibroblast growth factor receptor 1 (Homo sapiens) (UniProt P11362); assay: Inhibition of FGFR1 (unknown origin) at 100 to 1000 nM relative to control; settings: dose 100-1000 nM
[15] = target: Fibroblast growth factor receptor 4 (Homo sapiens) (UniProt P22455); assay: Inhibition of FGFR4 (unknown origin) at 100 to 1000 nM relative to control; settings: dose 100-1000 nM
RAW264.7 [16] = assay: Inhibition of LPS-induced ifn-beta in mouse RAW264.7 cells treated for 2 hrs RTq-PCR analysis; type: functional, cell-based; settings: dose 0.1-1 µM
[17] = target: Ephrin type-B receptor 2 (Homo sapiens) (UniProt P29323); assay: Inhibition of EPH-B2 (unknown origin) at 100 to 1000 nM relative to control; settings: dose 100-1000 nM
[18] = target: Fibroblast growth factor receptor 2 (Homo sapiens) (UniProt P21802); assay: Inhibition of FGFR2 (unknown origin) at 100 to 1000 nM relative to control; settings: dose 100-1000 nM
Chain of Fibroblast growth factor receptor 2 (Homo sapiens) (P21802 22-821 limits assumed): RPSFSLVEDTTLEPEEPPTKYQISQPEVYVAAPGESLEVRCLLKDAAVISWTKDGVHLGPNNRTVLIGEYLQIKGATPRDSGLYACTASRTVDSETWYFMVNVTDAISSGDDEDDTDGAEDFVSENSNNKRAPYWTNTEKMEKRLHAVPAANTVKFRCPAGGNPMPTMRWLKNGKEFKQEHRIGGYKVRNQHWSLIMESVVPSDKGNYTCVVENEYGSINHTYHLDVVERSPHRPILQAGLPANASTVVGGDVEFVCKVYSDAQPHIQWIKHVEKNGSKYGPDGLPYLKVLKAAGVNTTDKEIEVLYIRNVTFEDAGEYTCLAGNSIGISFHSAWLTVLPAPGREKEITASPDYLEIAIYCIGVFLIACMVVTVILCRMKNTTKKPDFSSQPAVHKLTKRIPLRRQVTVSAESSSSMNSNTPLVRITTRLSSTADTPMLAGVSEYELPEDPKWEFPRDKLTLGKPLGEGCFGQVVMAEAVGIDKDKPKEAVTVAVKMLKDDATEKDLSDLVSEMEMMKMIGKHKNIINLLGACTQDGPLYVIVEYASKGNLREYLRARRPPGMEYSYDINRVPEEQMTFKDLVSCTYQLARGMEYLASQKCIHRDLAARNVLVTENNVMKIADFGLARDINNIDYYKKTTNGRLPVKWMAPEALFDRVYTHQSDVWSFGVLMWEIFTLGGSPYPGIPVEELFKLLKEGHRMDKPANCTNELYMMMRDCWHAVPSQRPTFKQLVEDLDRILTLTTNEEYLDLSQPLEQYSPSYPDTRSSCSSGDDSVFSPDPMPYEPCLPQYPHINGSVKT

[19] = target: T1, Serine/threonine-protein kinase TBK1 (Homo sapiens); assay: Inhibition of TBK1 (unknown origin) incubated at 100 nM for 1 hr in presence of ATP by FRET based Z'-Lyte assay relative to control
[20] = target: Platelet-derived growth factor receptor alpha (Homo sapiens) (UniProt P16234); assay: Inhibition of PDGFR-alpha (unknown origin) at 100 to 1000 nM relative to control; settings: dose 100-1000 nM
[21] = target: Tyrosine-protein kinase ITK/TSK (Homo sapiens) (UniProt Q08881); assay: Inhibition of ITK (unknown origin) at 100 to 1000 nM relative to control; settings: dose 100-1000 nM
[22] = target: T1, Serine/threonine-protein kinase TBK1 (Homo sapiens); assay: Inhibition of TBK1 (unknown origin) incubated at 10 nM for 1 hr in presence of ATP by FRET based Z'-Lyte assay relative to control
[23] = target: Vascular endothelial growth factor receptor 1 (Homo sapiens) (UniProt P17948); assay: Inhibition of VEGFR1 (unknown origin) at 100 to 1000 nM relative to control; settings: dose 100-1000 nM
[24] = target: Vascular endothelial growth factor receptor 2 (Homo sapiens) (UniProt P35968); assay: Inhibition of VEGFR2 (unknown origin) at 100 to 1000 nM relative to control; settings: dose 100-1000 nM
A549 = assay: Antiproliferative activity against human A549 cells measured after 72 hrs by SRB staining method; type: functional, cell-based; settings: A549, 72 h
[25] = target: Proto-oncogene tyrosine-protein kinase receptor Ret (Homo sapiens) (UniProt P07949); assay: Inhibition of RET (unknown origin) at 100 to 1000 nM relative to control; settings: dose 100-1000 nM
Chain of Proto-oncogene tyrosine-protein kinase receptor Ret (Homo sapiens) (P07949 whole entry): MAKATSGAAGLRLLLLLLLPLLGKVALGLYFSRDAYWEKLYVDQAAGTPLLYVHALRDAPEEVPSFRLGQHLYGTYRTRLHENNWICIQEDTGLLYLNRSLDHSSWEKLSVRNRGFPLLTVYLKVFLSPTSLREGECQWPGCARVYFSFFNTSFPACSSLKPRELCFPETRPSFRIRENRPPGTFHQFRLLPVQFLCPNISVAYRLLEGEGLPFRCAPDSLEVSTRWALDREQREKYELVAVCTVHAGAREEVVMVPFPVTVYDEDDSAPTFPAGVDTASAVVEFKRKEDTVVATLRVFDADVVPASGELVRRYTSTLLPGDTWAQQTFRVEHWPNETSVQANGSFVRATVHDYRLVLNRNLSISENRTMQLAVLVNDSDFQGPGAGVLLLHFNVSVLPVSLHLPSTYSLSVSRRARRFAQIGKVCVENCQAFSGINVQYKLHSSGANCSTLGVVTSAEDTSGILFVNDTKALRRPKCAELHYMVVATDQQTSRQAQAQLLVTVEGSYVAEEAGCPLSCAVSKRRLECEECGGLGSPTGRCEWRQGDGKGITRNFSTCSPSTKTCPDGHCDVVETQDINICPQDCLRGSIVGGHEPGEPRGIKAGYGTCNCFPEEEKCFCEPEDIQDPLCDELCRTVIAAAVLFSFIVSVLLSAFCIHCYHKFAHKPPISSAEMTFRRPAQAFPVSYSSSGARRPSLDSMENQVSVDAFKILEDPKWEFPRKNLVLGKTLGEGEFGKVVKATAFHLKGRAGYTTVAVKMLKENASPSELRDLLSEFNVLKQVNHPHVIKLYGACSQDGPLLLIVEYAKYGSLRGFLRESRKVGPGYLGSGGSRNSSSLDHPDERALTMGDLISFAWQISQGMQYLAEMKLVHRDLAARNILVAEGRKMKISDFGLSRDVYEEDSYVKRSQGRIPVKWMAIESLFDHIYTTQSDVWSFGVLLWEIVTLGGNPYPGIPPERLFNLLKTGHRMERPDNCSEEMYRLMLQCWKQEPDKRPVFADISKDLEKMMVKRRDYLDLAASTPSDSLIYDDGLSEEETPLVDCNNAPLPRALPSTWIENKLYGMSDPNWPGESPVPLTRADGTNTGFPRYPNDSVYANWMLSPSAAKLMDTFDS

[26] = target: Receptor tyrosine-protein kinase erbB-2 (Homo sapiens) (UniProt P04626); assay: Inhibition of ErbB2 (unknown origin) at 100 to 1000 nM relative to control; settings: dose 100-1000 nM
[27] = target: Receptor tyrosine-protein kinase erbB-4 (Homo sapiens) (UniProt Q15303); assay: Inhibition of ErbB4 (unknown origin) at 100 to 1000 nM relative to control; settings: dose 100-1000 nM
[28] = target: Activated CDC42 kinase 1 (Homo sapiens) (UniProt Q07912); assay: Inhibition of ACK1 (unknown origin) at 100 to 1000 nM relative to control; settings: dose 100-1000 nM
Chain of Activated CDC42 kinase 1 (Homo sapiens) (Q07912 whole entry, looked up): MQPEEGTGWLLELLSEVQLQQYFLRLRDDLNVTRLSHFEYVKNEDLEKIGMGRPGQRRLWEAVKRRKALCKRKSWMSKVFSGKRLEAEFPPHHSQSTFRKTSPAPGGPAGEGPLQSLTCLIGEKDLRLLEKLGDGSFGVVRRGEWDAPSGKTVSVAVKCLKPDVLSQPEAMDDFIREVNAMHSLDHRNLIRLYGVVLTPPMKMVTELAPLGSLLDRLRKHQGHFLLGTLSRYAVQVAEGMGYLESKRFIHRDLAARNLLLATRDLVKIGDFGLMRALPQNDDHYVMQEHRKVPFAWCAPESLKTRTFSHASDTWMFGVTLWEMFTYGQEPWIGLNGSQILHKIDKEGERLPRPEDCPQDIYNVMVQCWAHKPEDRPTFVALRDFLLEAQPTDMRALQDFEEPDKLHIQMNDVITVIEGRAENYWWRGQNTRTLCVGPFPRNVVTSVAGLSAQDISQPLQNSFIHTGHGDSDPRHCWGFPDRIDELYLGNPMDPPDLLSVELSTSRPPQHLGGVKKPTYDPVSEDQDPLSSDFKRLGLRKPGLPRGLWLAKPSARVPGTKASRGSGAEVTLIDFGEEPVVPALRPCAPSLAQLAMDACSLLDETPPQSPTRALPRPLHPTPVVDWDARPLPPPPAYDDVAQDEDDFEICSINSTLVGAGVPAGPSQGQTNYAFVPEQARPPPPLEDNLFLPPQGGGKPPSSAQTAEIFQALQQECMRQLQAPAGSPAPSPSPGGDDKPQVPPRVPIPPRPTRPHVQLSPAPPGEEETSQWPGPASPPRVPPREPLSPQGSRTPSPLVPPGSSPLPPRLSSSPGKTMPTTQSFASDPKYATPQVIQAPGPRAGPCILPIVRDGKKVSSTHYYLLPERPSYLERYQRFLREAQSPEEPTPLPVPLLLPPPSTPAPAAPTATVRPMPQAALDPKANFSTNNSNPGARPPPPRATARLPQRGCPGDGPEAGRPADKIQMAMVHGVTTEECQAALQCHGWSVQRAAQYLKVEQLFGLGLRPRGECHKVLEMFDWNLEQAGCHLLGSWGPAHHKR

[29] = target: Ephrin type-A receptor 2 (Homo sapiens) (UniProt P29317); assay: Inhibition of EPH-A2 (unknown origin) at 100 to 1000 nM relative to control; settings: dose 100-1000 nM
[30] = target: Proto-oncogene tyrosine-protein kinase Src (Homo sapiens) (UniProt P12931); assay: Inhibition of Src (unknown origin) at 100 to 1000 nM relative to control; settings: dose 100-1000 nM
[31] = target: T1, Serine/threonine-protein kinase TBK1 (Homo sapiens); assay: Inhibition of TBK1 (unknown origin) incubated at 1000 nM for 1 hr in presence of ATP by FRET based Z'-Lyte assay relative to control
[32] = target: Tyrosine-protein kinase ABL1 (Homo sapiens) (UniProt P00519); assay: Inhibition of Abl (unknown origin) at 100 to 1000 nM relative to control; settings: dose 100-1000 nM
[33] = target: T2, Serine/threonine-protein kinase TBK1; assay: Inhibition of TBK1 (unknown origin) incubated for 1 hr in presence of ATP by FRET based Z'-Lyte assay
[34] = target: Epidermal growth factor receptor (Homo sapiens) (UniProt P00533); assay: Inhibition of EGFR (unknown origin) at 100 to 1000 nM relative to control; settings: dose 100-1000 nM
[35] = Antiproliferative activity against LLC cells measured after 72 hrs by SRB staining method; type: functional, cell-based; settings: Mus musculus, Lewis lung carcinoma
[36] = target: Tyrosine-protein kinase BTK (Homo sapiens) (UniProt Q06187); assay: Inhibition of BTK (unknown origin) at 100 to 1000 nM relative to control; settings: dose 100-1000 nM
Chain of Tyrosine-protein kinase BTK (Homo sapiens) (Q06187 whole entry): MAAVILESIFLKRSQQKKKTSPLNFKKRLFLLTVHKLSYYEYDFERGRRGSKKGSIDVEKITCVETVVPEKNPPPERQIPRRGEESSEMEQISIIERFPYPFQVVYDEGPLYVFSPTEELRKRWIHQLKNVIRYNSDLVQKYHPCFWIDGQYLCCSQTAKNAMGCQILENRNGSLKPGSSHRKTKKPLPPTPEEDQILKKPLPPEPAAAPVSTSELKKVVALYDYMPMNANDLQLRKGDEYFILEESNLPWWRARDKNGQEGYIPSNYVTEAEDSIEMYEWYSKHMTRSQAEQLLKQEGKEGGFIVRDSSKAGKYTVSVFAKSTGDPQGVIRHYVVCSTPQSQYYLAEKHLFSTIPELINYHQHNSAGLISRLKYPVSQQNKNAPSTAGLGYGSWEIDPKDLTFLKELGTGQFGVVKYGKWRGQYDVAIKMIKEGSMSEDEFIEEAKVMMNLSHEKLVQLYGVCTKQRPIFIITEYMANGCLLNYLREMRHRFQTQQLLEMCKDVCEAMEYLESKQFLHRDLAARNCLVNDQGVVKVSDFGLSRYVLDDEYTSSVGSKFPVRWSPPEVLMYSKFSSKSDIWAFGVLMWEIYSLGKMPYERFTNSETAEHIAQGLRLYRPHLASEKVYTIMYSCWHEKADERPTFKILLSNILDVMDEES

THP1-Blue ISG [37] = assay: Inhibition of LPS-induced cxcl10 in human THP1-Blue ISG cells treated for 2 hrs RTq-PCR analysis; type: functional, cell-based; settings: dose 0.1-1 µM
[38] = target: Vascular endothelial growth factor receptor 3 (Homo sapiens) (UniProt P35916); assay: Inhibition of VEGFR3 (unknown origin) at 100 to 1000 nM relative to control; settings: dose 100-1000 nM
Chain of Vascular endothelial growth factor receptor 3 (Homo sapiens) (P35916 whole entry): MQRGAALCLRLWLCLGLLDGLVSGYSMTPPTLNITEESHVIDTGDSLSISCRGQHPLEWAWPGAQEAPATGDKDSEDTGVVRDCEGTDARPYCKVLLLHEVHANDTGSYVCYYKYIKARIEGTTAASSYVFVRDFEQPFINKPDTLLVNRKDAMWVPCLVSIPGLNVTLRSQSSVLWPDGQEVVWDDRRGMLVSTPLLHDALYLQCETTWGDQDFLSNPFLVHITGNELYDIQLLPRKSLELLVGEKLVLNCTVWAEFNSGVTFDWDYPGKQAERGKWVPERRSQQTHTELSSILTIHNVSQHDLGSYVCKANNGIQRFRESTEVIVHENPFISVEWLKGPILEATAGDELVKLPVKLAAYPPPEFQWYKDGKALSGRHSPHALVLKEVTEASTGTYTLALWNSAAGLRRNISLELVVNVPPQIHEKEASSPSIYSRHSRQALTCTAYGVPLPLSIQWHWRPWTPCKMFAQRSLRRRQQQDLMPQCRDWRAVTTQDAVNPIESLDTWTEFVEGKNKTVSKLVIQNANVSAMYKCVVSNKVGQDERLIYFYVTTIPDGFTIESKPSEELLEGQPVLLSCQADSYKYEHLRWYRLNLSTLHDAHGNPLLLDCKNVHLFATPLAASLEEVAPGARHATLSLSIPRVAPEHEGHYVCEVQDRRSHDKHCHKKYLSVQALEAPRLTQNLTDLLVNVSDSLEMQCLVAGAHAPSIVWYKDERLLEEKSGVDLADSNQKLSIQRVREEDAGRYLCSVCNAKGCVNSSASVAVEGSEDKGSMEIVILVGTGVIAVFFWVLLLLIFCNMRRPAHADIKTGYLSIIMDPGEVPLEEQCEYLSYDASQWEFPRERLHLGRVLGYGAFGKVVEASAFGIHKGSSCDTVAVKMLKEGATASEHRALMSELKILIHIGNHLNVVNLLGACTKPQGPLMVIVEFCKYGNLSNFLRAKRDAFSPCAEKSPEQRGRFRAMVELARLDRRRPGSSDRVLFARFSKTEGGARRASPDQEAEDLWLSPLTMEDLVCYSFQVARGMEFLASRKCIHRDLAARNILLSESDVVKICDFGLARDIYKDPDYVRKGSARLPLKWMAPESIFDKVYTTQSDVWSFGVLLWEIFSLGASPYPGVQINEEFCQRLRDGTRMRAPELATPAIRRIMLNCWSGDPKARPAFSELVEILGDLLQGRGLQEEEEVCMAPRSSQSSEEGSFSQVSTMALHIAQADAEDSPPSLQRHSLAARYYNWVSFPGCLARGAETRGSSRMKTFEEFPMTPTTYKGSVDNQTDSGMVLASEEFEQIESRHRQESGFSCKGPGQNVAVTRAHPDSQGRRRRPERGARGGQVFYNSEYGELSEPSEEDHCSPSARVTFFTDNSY

Compound: CC(=O)N1CCN(Cc2cccc(Nc3ncc4ccn(CCCNC(=O)C5CCC5)c4n3)c2)CC1
- inhibition (RAW264.7 [1]): Dose-Dependent Effect
- inhibition [2]: < 35%
- inhibition [3]: < 35%
- inhibition [4]: Dose-Dependent Effect
- inhibition [5]: < 35%
- inhibition [6]: < 35%
- inhibition [7]: < 35%
- inhibition (THP1-Blue ISG [8]): Dose-Dependent Effect
- IC50 [9]: 566 nM
- inhibition [10]: < 35%
- inhibition [11]: < 35%
- inhibition [12]: < 35%
- inhibition [13]: < 35%
- inhibition [14]: < 35%
- inhibition [15]: < 35%
- inhibition (RAW264.7 [16]): Dose-Dependent Effect
- inhibition [17]: < 35%
- inhibition [18]: < 35%
- inhibition [19]: 66.2%
- inhibition [20]: < 35%
- inhibition [21]: < 35%
- inhibition [22]: 56.7%
- inhibition [23]: < 35%
- inhibition [24]: < 35%
- IC50 (A549): 17600 nM
- inhibition [25]: < 35%
- inhibition [26]: < 35%
- inhibition [27]: < 35%
- inhibition [28]: < 35%
- inhibition [29]: < 35%
- inhibition [30]: < 35%
- inhibition [31]: 89%
- inhibition [32]: < 35%
- IC50 [33]: 22.4 nM
- inhibition [34]: < 35%
- IC50 [35]: 9400 nM
- inhibition [36]: < 35%
- inhibition (THP1-Blue ISG [37]): Dose-Dependent Effect
- inhibition [38]: < 35%

Compound: O=C(C1CCC1)N1CCC(n2ccc3cnc(Nc4cccc(CN5CCOCC5)c4)nc32)C1 (stereo not drawn)
- inhibition [19]: < 0%
- inhibition [22]: < 0%
- inhibition [31]: < 0%

Compound: O=C(Nc1cccc(Cn2ccc3cnc(Nc4cccc(CN5CCOCC5)c4)nc32)c1)C1CCC1
- inhibition [19]: < 0%
- inhibition [22]: < 0%
- inhibition [31]: < 0%

Compound: CN1CCN(Cc2cccc(Nc3ncc4ccn(CCCNC(=O)C5CCC5)c4n3)c2)CC1
- inhibition [19]: 44.5%
- inhibition [22]: -3.2%
- inhibition [31]: 72.6%
- IC50 [33]: 53.6 nM

Compound: O=C(C1CCC1)N1CCC(n2ccc3cnc(Nc4cccc(CN5CCOCC5)c4)nc32)CC1
- inhibition [19]: < 0%
- inhibition [22]: < 0%
- inhibition [31]: < 0%

Compound: O=C(NCCCn1cc(Br)c2cnc(Nc3cccc(CN4CCOCC4)c3)nc21)C1CCC1
- inhibition [19]: 37.1%
- inhibition [22]: 1.33%
- inhibition [31]: 84.4%

Compound: O=C(NCCCn1ccc2cnc(Nc3cccc(CN4CCOCC4)c3)nc21)C1CCC1
- inhibition [19]: 69.7%
- inhibition [22]: 23.3%
- inhibition [31]: 92.1%
- IC50 [33]: 66.7 nM

Compound: O=C(NCc1cccc(-n2ccc3cnc(Nc4cccc(CN5CCOCC5)c4)nc32)c1)C1CCC1
- inhibition [19]: 15.7%
- inhibition [22]: < 0%
- inhibition [31]: 72.8%

Compound: O=C(NCCCn1cc(Cl)c2cnc(Nc3cccc(CN4CCOCC4)c3)nc21)C1CCC1
- inhibition [19]: 55.8%
- inhibition [22]: 9.6%
- inhibition [31]: 91%

Compound: N#Cc1cn(CCCNC(=O)C2CCC2)c2nc(Nc3cccc(CN4CCOCC4)c3)ncc12
- inhibition [19]: < 0%
- inhibition [22]: < 0%
- inhibition [31]: 26.4%
